Reference: ChEMBL document CHEMBL1150873, “A new lysine derivative and new 3-bromopyrrole carboxylic acid derivative from two marine sponges” (J Nat Prod, 1998)
In brackets after ≈: the same amount, converted by molar mass.

How the values were obtained:
[1] = system: Artemia; test: (§1) Toxicity in brine shrimp; format: organism-based; details: in vivo
[2] = as §1; format: organism-based; details: artemia, in vivo
[3] = system: P388; test: Cytotoxicity against mouse P388 cells; format: functional, cell-based

With `O=C1CCNC(=O)c2[nH]c(Br)cc21` as the compound, how does the Activity [1] read?
The Activity was “Not Active”.

Which LC50 [2] does the source give for `C=C(C)[C@H]1CCC[C@@]2(C)CCC[C@@](C)(SC#N)[C@@H]12` here?
The LC50 was 50 µg/mL (≈ 190 µM).

With `O=C1NCC(O)n2cc(Br)cc21` (stereo not drawn) as the compound, how does the Activity [1] read?
Its Activity is “Not Active”.

With `O=C(O)/C1=N/CCCC[C@@H](C(=O)O)N1` as the compound, how does the Activity [1] read?
The Activity was “Not Active”.

For `C=C(C)[C@H]1CCC[C@@]2(C)CCC[C@@](C)(NC=O)[C@@H]12`, which IC50 [3] is on record?
The IC50 was 1.2 µg/mL (≈ 4.81 µM).

What about the LC50 [2] of the same compound?
The LC50 was 50 µg/mL (≈ 200 µM).

For `[C-]#[N+][C@]1(C)CCC[C@]2(C)CCC[C@H](C(=C)C)[C@@H]21`, which IC50 [3] is on record?
The IC50 was 8.3 µg/mL (≈ 35.9 µM).

For `O=C1CCNC(=O)c2[nH]ccc21` [ALDISIN], which Activity [1] is on record?
Its Activity is “Not Active”.
